The test system of this test is indomethacin-induced bleeding gastric ulcer. As to the kind of experiment: indomethacin-induced bleeding gastric ulcer model using male rats. Particulars: 1 mg/kg single dose tail vein, mean ± SD. It counts as in vivo, rat. Here is the method:
In order to evaluate the efficacy of fexuprazan against bleeding gastric ulcers, an indomethacin-induced bleeding gastric ulcer model using male rats was used.
Specifically, the previously prepared 1-(5-(2,4-difluorophenyl)-1-((3-fluorophenyl)sulfonyl)-4-methoxy-1H-pyrrol-3-yl)-N-methylmethanamine (hereinafter referred to as ‘fexuprazan’) hydrochloride was dissolved in a solution containing 30 wt. % of polyethylene glycol (Polyethylene Glycol 400) polymer in physiological saline. The concentration was adjusted so that 0, 0.1, 0.5, 1, 2 mg/kg based on fexuprazan weight could be administered to each test animal in a liquid volume of 1 mL/kg, and then each test animal was administered through the tail vein as a single dose. In addition, 1 mg/kg of esomeprazole magnesium trihydrate, which is a positive control, based on esomeprazole weight was administered as a single dose through the tail vein in test animals. After 30 minutes, 80 mg/kg of indomethacin was orally administered as a single dose to each test animal to induce gastric bleeding and ulceration. An autopsy was performed 5 hours after administration of indomethacin, and the stomach was removed. Then, the ulcer index (%) was measured using an image program (Leica Application Suite V4), and gastric hemorrhage and erosion state were evaluated through histopathological examination.

As to `COc1ccc2nc([S@@+]([O-])Cc3ncc(C)c(OC)c3C)[nH]c2c1` [Esomeprazole, esomeprazole magnesium trihydrate, reference compound], the “Ulcer index (%)” value (30 min before indomethacin 80 mg/kg oral, autopsy 5 h) is 6.1 ± 2.6 %. Under “histopathological examination”, the Gastric erosion state came out at 2.0 ± 1.8 and the Gastric hemorrhage state is on record as 1.3 ± 1.6^.
